Tested on: Bronchospasm
Assay: antibronchoconstrictory activity, technique of Konzett and Rossler (histamine bronchospasm, i.v.)
Format: in vivo, tricoloured guinea pigs
Details: guinea pig; for Duration: duration of action
Protocol: The antibronchoconstrictory activity was investigated on tricoloured guinea pigs according to the technique of Konzett and Rossler. The animals are anaesthetised with ethylcarbamate and, after tracheotomy, are artifically respirated at constant volume; whereby the intratracheal pressure is recorded continuously. Histamine (5 μg.kg^-1, i.v.) is administered before and at various time-intervals after treatment with the substance to be studied. The activity of the product administered intravenously is evaluated by comparing the amplitudes of the bronchospasms before and after treatment and calculating the percentage variation and the duration of action.

[1] = Cavia porcellus, iv, dose 0.25 mg, histamine 5 μg/kg i.v.
[2] = dose 0.25 mg, histamine 5 μg/kg i.v.
[3] = Cavia porcellus, iv, dose 5 mg, histamine 5 μg/kg i.v.
[4] = dose 5 mg, histamine 5 μg/kg i.v.
[5] = Cavia porcellus, iv, dose 0.05 mg, histamine 5 μg/kg i.v.
[6] = dose 0.05 mg, histamine 5 μg/kg i.v.
[7] = Cavia porcellus, iv, dose 0.1 mg, histamine 5 μg/kg i.v.
[8] = dose 0.1 mg, histamine 5 μg/kg i.v.

COC(CN1CCN(c2ccc(F)cc2)CC1)c1cnc(C)cn1 (stereo not drawn) [Compound 12]
inhibition in vivo at 0.5 mg (Cavia porcellus, iv, dose 0.5 mg, histamine 5 μg/kg i.v.): 91% | Duration (dose 0.5 mg, histamine 5 μg/kg i.v.): > 60 min

COC(CN1CCN(c2ccccc2)CC1)c1cnc(C)cn1 (stereo not drawn) [Compound 9]
inhibition in vivo at 0.25 mg [1]: 98% | Duration [2]: 30 min

CCOC(CN1CCN(c2ccccc2OC)CC1)c1ccc(C)nc1 (stereo not drawn) [Compound 11]
inhibition in vivo at 0.25 mg [1]: 100% | Duration [2]: > 60 min

COc1ccccc1N1CCN(CC(OC)c2ccc(C)nc2)CC1 (stereo not drawn) [Compound 7, 1-[2-Methoxy-2-(6-methyl-3-pyridyl)-ethyl]-4-(2-methoxy-phenyl)-piperazine]
inhibition in vivo at 0.25 mg [1]: 97% | Duration [2]: > 60 min | antibronchoconstrictory activity (intensity and duration of action), in words (histamine bronchospasm): excellent activity

CCOC(CN1CCN(c2ccccc2)CC1)c1ccc(C)nc1 (stereo not drawn) [Compound 10]
inhibition in vivo at 1 mg (Cavia porcellus, iv, dose 1 mg, histamine 5 μg/kg i.v.): 100% | Duration (dose 1 mg, histamine 5 μg/kg i.v.): > 60 min

COC(CN1CCCC1)c1ccc(C)nc1 (stereo not drawn) [Compound 1]
inhibition in vivo at 5 mg [3]: 56.5% | Duration [4]: > 60 min

COC(CN1CCN(c2ccc(F)cc2)CC1)c1ccc(C)nc1 (stereo not drawn) [Compound 2]
inhibition in vivo at 0.05 mg [5]: 85% | Duration [6]: > 120 min | antibronchoconstrictory activity (intensity and duration of action), in words (histamine bronchospasm): excellent activity

COC(CN1CCOCC1)c1ccc(C)nc1 (stereo not drawn) [Compound 3]
inhibition in vivo at 5 mg [3]: 50% | Duration [4]: > 15 min

CCOc1ccccc1N1CCN(CC(OC)c2ccc(C)nc2)CC1 (stereo not drawn) [Compound 8]
inhibition in vivo at 0.1 mg [7]: 95% | Duration [8]: > 15 min | antibronchoconstrictory activity (intensity and duration of action), in words (histamine bronchospasm): excellent activity

COC(CN1CCN(c2ccccc2)CC1)c1nccnc1C.O=C(O)/C=C/C(=O)O (stereo not drawn) [Compound 14, 1-[2-Methoxy-2-(3-methyl-2-pyrazinyl)-ethyl]-4-phenyl-piperazine fumarate salt]
inhibition in vivo at 5 mg [3]: 82% | Duration [4]: 45 min

COc1ccc(N2CCN(CC(OC)c3ccc(C)nc3)CC2)c(OC)c1 (stereo not drawn) [Compound 15]
inhibition in vivo at 0.05 mg [5]: 80% | Duration [6]: 60 min | antibronchoconstrictory activity (intensity and duration of action), in words (histamine bronchospasm): excellent activity

COC(CN1CCN(c2ccccc2C)CC1)c1ccc(C)nc1 (stereo not drawn) [Compound 16]
inhibition in vivo at 0.1 mg [7]: 79% | Duration [8]: 45 min | antibronchoconstrictory activity (intensity and duration of action), in words (histamine bronchospasm): excellent activity

COC(CN1CCN(c2ccccc2)CC1)c1ccc(C)nc1 (stereo not drawn) [Compound 6, 1-[2-Methoxy-2-(6-methyl-3-pyridyl)-ethyl]-4-phenyl-piperazine]
inhibition in vivo at 0.025 mg (Cavia porcellus, iv, dose 0.025 mg, histamine 5 μg/kg i.v.): 90% | ED50 (Cavia porcellus, iv, histamine bronchospasm): 1.9 µg/kg | Duration (dose 0.025 mg, histamine 5 μg/kg i.v.): > 120 min | antibronchoconstrictory activity (intensity and duration of action), in words (histamine bronchospasm): excellent activity
